Data reported in ChEMBL document CHEMBL1123562, “N-substituted oxopyrimidines and nucleosides: structure-activity relationship for hypnotic activity as central nervous system depressant” (J Med Chem, 1987).
Values joined by “and” are separate entries in the source; they are usually repeats but may differ in a detail not shown here. Equal values may be shown once. Values belong to the compound of their own block, whether it stands above or below them.

Columns and labels:
[1] = test system: Mus musculus; test: Hypnotic activity expressed as sleeping time was determined in ddN strain mice by the icv administration of 2.0 uMol/mouse of the compound; assay type: functional
[2] = test system: Mus musculus; test: Hypnotic activity in ddN strain mice by the iv administration of 0.5 mmol/kg; No activity.; assay type: functional, organism-based
[3] = test system: Mus musculus; test: Tested for PB (pentobarbital)-induced sleep effect expressed as percent control of sleeping time at a dosage (icv) of 3.8 uM concentration; assay type: functional
[4] = test system: Mus musculus; test: Hypnotic activity expressed as ratio of number of animals slept and total number of animals tested was determined in ddN strain mice by the icv administration of 0.3 mmol/kg of the compound; 6/6; assay type: functional
[5] = test system: Mus musculus; test: Hypnotic activity expressed as ratio of number of animals slept and total number of animals tested was determined in ddN strain mice by the icv administration of 0.5 mmol/kg of the compound; 4/4; assay type: functional
[6] = test system: Mus musculus; test: Hypnotic activity expressed as sleeping time was determined in ddN strain mice by the icv administration of 3.0 uMol/mouse of the compound; assay type: functional
[7] = test system: Mus musculus; test: Hypnotic activity expressed as sleeping time was determined in ddN strain mice by the icv administration of 1.0 uMol/mouse of the compound; assay type: functional
[8] = test system: Mus musculus; test: Hypnotic activity expressed as ratio of number of animals slept and total number of animals tested was determined in ddN strain mice by the icv administration of 0.1 mmol/kg of the compound; 8/8; assay type: functional
[9] = test system: Mus musculus; test: Tested for PB (pentobarbital)-induced sleep effect expressed as percent control of sleeping time at a dosage (icv) of 2.0 uM concentration; assay type: functional
[10] = Partition coefficient is determined for the compound from its equilibrium concentrations in organic phase to that in aqueous buffer of pH 7.4; assay type: ADME; details: octanol/water
[11] = test system: Mus musculus; test: Hypnotic activity expressed as sleeping time was determined in ddN strain mice by the iv administration of 0.1 mmol/kg of the compound; None indicates that the mouse could not fall into sleep; assay type: functional, organism-based
[12] = test system: Mus musculus; test: Hypnotic activity expressed as sleeping time was determined in ddN strain mice by the iv administration of 0.3 mmol/kg of the compound; None indicates that the mouse could not fall into sleep; assay type: functional, organism-based
[13] = test system: Mus musculus; test: Hypnotic activity expressed as sleeping time was determined in ddN strain mice by the icv administration of 2.0 uMol/mouse of the compound; None indicates that the mouse could not fall into sleep; assay type: functional, organism-based
[14] = test system: Mus musculus; test: Hypnotic activity expressed as ratio of number of animals slept and total number of animals tested was determined in ddN strain mice by the icv administration of 0.3 mmol/kg of the compound; 2/8; assay type: functional
[15] = test system: Mus musculus; test: Hypnotic activity expressed as ratio of number of animals slept and total number of animals tested was determined in ddN strain mice by the icv administration of 0.5 mmol/kg of the compound; 5/8; assay type: functional
[16] = test system: Mus musculus; test: Hypnotic activity expressed as sleeping time was determined in ddN strain mice by the icv administration of 1.0 uMol/mouse of the compound; None indicates that the mouse could not fall into sleep; assay type: functional, organism-based
[17] = test system: Mus musculus; test: Hypnotic activity expressed as ratio of number of animals slept and total number of animals tested was determined in ddN strain mice by the icv administration of 0.1 mmol/kg of the compound; 0/8; assay type: functional
[18] = test system: Mus musculus; test: Hypnotic activity expressed as sleeping time was determined in ddN strain mice by the icv administration of 3.8 uMol/mouse of the compound; None indicates that the mouse could not fall into sleep; assay type: functional, organism-based
[19] = test system: Mus musculus; test: Hypnotic activity expressed as ratio of number of animals slept and total number of animals tested was determined in ddN strain mice by the icv administration of 0.1 mmol/mouse of the compound; 0/8; assay type: functional
[20] = test system: Mus musculus; test: Hypnotic activity expressed as ratio of number of animals slept and total number of animals tested was determined in ddN strain mice by the icv administration of 0.3 mmol/mouse of the compound; 7/8; assay type: functional
[21] = test system: Mus musculus; test: Hypnotic activity expressed as ratio of number of animals slept and total number of animals tested was determined in ddN strain mice by the icv administration of 0.3 mmol/mouse of the compound; 8/8; assay type: functional
[22] = test system: Mus musculus; test: Hypnotic activity expressed as sleeping time was determined in ddN strain mice by the icv administration of 3.8 uMol/mouse of the compound; assay type: functional
[23] = test system: Mus musculus; test: Tested for PB (pentobarbital)-induced sleep effect expressed as percent control of sleeping time at a dosage (icv) of 1.0 uM concentration; assay type: functional
[24] = test system: Mus musculus; test: Hypnotic activity expressed as sleeping time was determined in ddN strain mice by the icv administration of 0.1 mmol/mouse of the compound; None indicates that the mouse could not fall into sleep; assay type: functional, organism-based
[25] = test system: Mus musculus; test: Hypnotic activity expressed as sleeping time was determined in ddN strain mice by the iv administration of 0.5 umol/kg of the compound; None indicates that the mouse could not fall into sleep; assay type: functional, organism-based
[26] = test system: Mus musculus; test: Hypnotic activity expressed as sleeping time was determined in ddN strain mice by the iv administration of 0.3 mmol/kg of the compound; assay type: functional
[27] = test system: Mus musculus; test: Hypnotic activity expressed as sleeping time was determined in ddN strain mice by the iv administration of 0.5 mmol/kg of the compound; assay type: functional
[28] = test system: Mus musculus; test: Tested for PB (pentobarbital)-induced sleep effect expressed as percent control of sleeping time at a dosage (icv) of 2.4 uM concentration; assay type: functional
[29] = test system: Mus musculus; test: Hypnotic activity expressed as sleeping time was determined in ddN strain mice by the icv administration of 12.0 uMol/mouse of the compound; assay type: functional

SMILES: O=c1ccn(C2O[C@H](CO)[C@@H](O)[C@H]2O)c(=O)n1Cc1ccc(Cl)cc1 (stereo partly drawn)
Sleeping time [1]: 20 min | Sleeping time [2]: None | Control [3]: 203%

SMILES: Cc1ccccc1Cn1c(=O)ccn(C2O[C@H](CO)[C@@H](O)[C@H]2O)c1=O (stereo partly drawn)
Activity [4]: 6 | Activity [5]: 4 | Sleeping time [6]: 129 min | Sleeping time [7]: 45 min | Sleeping time [1]: 72 min and 70 min | Sleeping time [2]: None | Activity [8]: 8 | Sleeping time (% of control) [9]: 344%

Partition coefficient [10]: 2.16
SMILES: COC[C@H]1O[C@@H](n2ccc(=O)[nH]c2=O)[C@H](OC)[C@@H]1OC
Sleeping time [11]: None | Sleeping time [12]: None | Sleeping time [13]: None | Sleeping time [2]: None | Control [9]: 144%

SMILES: CC(c1ccccc1)n1c(=O)ccn(C2O[C@H](CO)[C@@H](O)[C@H]2O)c1=O (stereo partly drawn)
Activity [14]: 2 | Activity [15]: 5 | Sleeping time [6]: 27 min | Sleeping time [16]: None | Sleeping time [1]: 7 min | Sleeping time [2]: None | Activity [17]: 0 | Sleeping time (% of control) [9]: 231% | Control [3]: 303%

SMILES: CCCn1c(=O)ccn(C2O[C@H](CO)[C@@H](O)[C@H]2O)c1=O (stereo partly drawn)
Sleeping time [18]: None | Sleeping time [2]: None | Control [3]: 134%

SMILES: CC(=O)OC[C@H]1O[C@@H](n2ccc(=O)[nH]c2=O)[C@H](OC(C)=O)[C@@H]1OC(C)=O [URIDINE TRIACETATE]
Sleeping time [1]: 8 min | Sleeping time [2]: None | Sleeping time (% of control) [9]: 178%

Partition coefficient [10]: 2.16
SMILES: O=c1ccn(C2O[C@H](CO)[C@@H](O)[C@H]2O)c(=O)n1Cc1ccccc1 (stereo partly drawn)
Activity [19]: 0 | Activity [20]: 7 | Activity [21]: 8 | Sleeping time [6]: 106 min | Sleeping time [22]: 153 min | Sleeping time [11]: None | Sleeping time [12]: None | Sleeping time [1]: 36 min and 28 min | Sleeping time [2]: None | Sleeping time (% of control) [9]: 292% | Control [3]: 404% | Control [23]: 154% | Sleeping time [24]: None

SMILES: O=c1ccn(Cc2ccccc2)c(=O)[nH]1
Sleeping time [13]: None | Sleeping time [2]: None | Sleeping time (% of control) [9]: 86%

SMILES: O=c1cc[nH]c(=O)[nH]1 [URACIL]
Sleeping time [13]: None | Sleeping time [2]: None | Control [23]: 99%

Partition coefficient [10]: 0.35
SMILES: O=c1[nH]c(=O)n(C2CCCO2)cc1F (stereo not drawn) [TEGAFUR]
Sleeping time [11]: None | Sleeping time [12]: None | Sleeping time [13]: None | Sleeping time [2]: None | Sleeping time (% of control) [9]: 139%

SMILES: Cc1cccc(Cn2c(=O)ccn(C3O[C@H](CO)[C@@H](O)[C@H]3O)c2=O)c1 (stereo partly drawn)
Sleeping time [1]: 56 min | Sleeping time [2]: None | Sleeping time (% of control) [9]: 326%

SMILES: CCn1c(=O)ccn(C2O[C@H](CO)[C@@H](O)[C@H]2O)c1=O (stereo partly drawn)
Sleeping time [18]: None | Sleeping time [2]: None | Control [3]: 124%

SMILES: CC(C)=CCn1c(=O)ccn(C2O[C@H](CO)[C@@H](O)[C@H]2O)c1=O (stereo partly drawn)
Sleeping time [18]: None | Sleeping time [2]: None | Control [3]: 228%

SMILES: Cc1ccc(Cn2c(=O)ccn(C3O[C@H](CO)[C@@H](O)[C@H]3O)c2=O)cc1 (stereo partly drawn)
Sleeping time [1]: 36 min | Sleeping time [25]: None | Sleeping time (% of control) [9]: 308%

SMILES: Cn1c(=O)ccn(C2O[C@H](CO)[C@@H](O)[C@H]2O)c1=O (stereo partly drawn)
Sleeping time [18]: None | Sleeping time [2]: None | Control [3]: 117%

Partition coefficient [10]: 64.45
SMILES: COC[C@H]1O[C@@H](n2ccc(=O)n(Cc3ccccc3)c2=O)[C@H](OC)[C@@H]1OC
Sleeping time [11]: None | Sleeping time [26]: 6 min | Sleeping time [1]: 6 min | Sleeping time [27]: 29 min | Sleeping time (% of control) [9]: 200%

Partition coefficient [10]: 23.94
SMILES: O=c1c(F)cn(C2CCCO2)c(=O)n1Cc1ccccc1 (stereo not drawn)
Sleeping time [11]: None | Sleeping time [26]: 2 min | Sleeping time [1]: 3 min | Sleeping time [27]: 7 min | Sleeping time (% of control) [9]: 262%

Partition coefficient [10]: 32.73
SMILES: CC(=O)OC[C@H]1O[C@@H](n2ccc(=O)n(Cc3ccccc3)c2=O)[C@H](OC(C)=O)[C@@H]1OC(C)=O
Sleeping time [11]: None | Sleeping time [26]: 1 min | Sleeping time [1]: 4 min | Sleeping time [27]: 5 min | Sleeping time (% of control) [9]: 186%

SMILES: C=CCn1c(=O)ccn(C2O[C@H](CO)[C@@H](O)[C@H]2O)c1=O (stereo partly drawn)
Sleeping time [18]: None | Sleeping time [2]: None | Control [3]: 173%

SMILES: O=c1ccn([C@@H]2O[C@H](CO)[C@@H](O)[C@H]2O)c(=O)[nH]1 [URIDINE]
Sleeping time [18]: None | Sleeping time [2]: None | Control [28]: 135% | Control [3]: 138% | Control [23]: 93%

SMILES: O=c1ccn(Cc2ccccc2)c(=O)n1Cc1ccccc1
Sleeping time [29]: 15 min | Sleeping time [13]: None | Sleeping time [27]: 17 min | Control [3]: 112%
